Like-named read-outs stand apart in the source and are kept apart here.
Target: human α7 nAChR (Homo sapiens, UniProt P36544)
Assay: Automated patch-clamp electrophysiology functional assay (Assay A)
Format: cell-based
Settings: IonFlux HT whole-cell population patch, HEK cell line stably expressing human RIC-3 and human α7, 40 μM acetylcholine
Protocol: The α7 nAChR positive allosteric modulator (PAM) activity of the present compounds may be tested using assays known in the art. […] The assay was performed using the IonFlux HT in a whole-cell, population patch configuration. See Golden et al. Assay Drug Dev. Technol. (2011) 9:608-619. The compounds were assessed for their ability to modulate the function of the human α7 nAChR stably expressed in a HEK cell line both in the presence, and in the absence of the natural α7 agonist acetylcholine. By performing a series of such measurements at different concentrations, the effective concentration of the α7 nAChR PAMs (EC50) was determined. See Spencer et al. Assay Drug Dev. Technol. (2012) 10:313-324.
Direct activation of α7 (agonism), and potentiation of acetylcholine-evoked α7 currents was determined as follows:
Automated Patch-Clamp Electrophysiology Functional Assay (Assay A)
Automated patch-clamp electrophysiology was performed using the IonFlux HT (Fluxion Biosciences Inc., San Francisco, Calif.) in the whole-cell, population patch configuration. Test compounds were assessed for their ability to modulate the function of the α7 nicotinic acetylcholine receptor both in the presence, and in the absence of the natural α7 agonist acetylcholine. A HEK cell line stably expressing both human RIC-3 and human α7 (PrecisION hnAChR α7/RIC-3, Eurofins Pharma, St. Charles, Mo.) was cultured in 175 cm^2 triple-layer tissue culture flasks to no more than 90% confluency in DMEM/F-12 growth media supplemented with 10% heat-inactivated fetal bovine serum, 1% non-essential amino acids, 0.625 μg/mL Puromycin, and 400 μg/mL Geneticin. Immediately prior to assay, cells were detached by first aspirating growth media, rinsing with Dulbecco's phosphate buffered saline, and then adding 10 mL of Accutase (Innovative Cell Technologies, San Diego, Calif.) to the flask and then incubating at 37° C. for 5 minutes. Detached cells were then recovered by the addition of 40 mL of CHO-serum-free media supplemented with 25 mM HEPES, and rocked gently in a 50 mL conical tube for 20 minutes prior to patch-clamp assay. […] The cell suspension was added to the cell inlet wells on an IonFlux HT population patch plate which had previously been rinsed and primed with deionized H2O. Test compounds were serially diluted in DMSO and then resuspended to the final test concentration in external recording solution, with, or without 40 μM acetylcholine added to the external recording solution; test compounds were then transferred to the lonFlux HT population patch plate. Internal recording solution (110 mM TrisPO4, 28 mM TrisBase, 0.1 mM CaCl2, 2 mM MgCl2, 11 mM EGTA, 4 mM MgATP) was added to the internal recording solution inlet wells on the IonFlux HT patch plate previously loaded with cells and test compounds, and the plate loaded into the IonFlux HT instrument. A protocol was executed on the IonFlux HT to trap the cells, break into the cells, and establish the whole-cell recording configuration; cells were voltage-clamped at a holding potential of −60 mV for the duration of the experiment, all experiments were conducted at room temperature, and the IonFlux HT injection pressure was 8 psi for solution applications. Upon establishing the whole-cell configuration, external recording solution was perfused into the recording chambers for 120 seconds and then 40 μM acetylcholine was applied for 1 second and immediately washed off with external recording solution for 60 seconds. The 40 μM acetylcholine-evoked α7 current served as the current response to which subsequent test compound effects, in the presence, or in the absence of 40 μM acetylcholine would be quantified relative to. Next, test compounds were evaluated at multiple concentrations for their ability to induce, or modulate α7 current responses; three concentrations of test compound were evaluated in ascending dose fashion per recording.

Sequence of human α7 nAChR (P36544 23-502): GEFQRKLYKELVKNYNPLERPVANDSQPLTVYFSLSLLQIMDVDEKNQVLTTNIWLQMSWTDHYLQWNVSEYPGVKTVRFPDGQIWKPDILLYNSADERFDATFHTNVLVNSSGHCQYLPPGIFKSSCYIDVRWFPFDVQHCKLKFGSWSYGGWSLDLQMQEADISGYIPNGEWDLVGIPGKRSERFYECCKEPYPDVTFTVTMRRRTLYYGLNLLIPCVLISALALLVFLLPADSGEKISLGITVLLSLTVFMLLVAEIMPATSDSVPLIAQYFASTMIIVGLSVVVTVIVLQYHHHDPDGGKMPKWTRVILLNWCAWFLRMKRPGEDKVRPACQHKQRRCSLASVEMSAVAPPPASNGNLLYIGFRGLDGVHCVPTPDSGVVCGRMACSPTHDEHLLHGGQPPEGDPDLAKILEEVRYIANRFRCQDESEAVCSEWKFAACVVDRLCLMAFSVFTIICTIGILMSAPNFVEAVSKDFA

Work on COc1ccc(Cl)cc1-c1noc([C@H]2[C@H](c3ncc(S(N)(=O)=O)s3)C2(C)C)n1 (racemic) [Example D7, 2-{trans-3-[3-(5-Chloro-2-methoxyphenyl)-1,2,4-oxadiazol-5-yl]-2,2-dimethylcyclopropyl}-1,3-thiazole-5-sulfonamide] yielded an EC50 (read-out: α7 nAChR EC50) of 1200 nM and an EC50 (read-out: α7 nAChR Potency) of 500 to 5000 nM.
Work on CC1(C)[C@@H](c2ccc(S(N)(=O)=O)nc2)[C@@H]1c1nc(C2CCCCC2)no1 [Example B6, 5-[(1S,3S)-3-(3-Cyclohexyl-1,2,4-oxadiazol-5-yl)-2,2-dimethylcyclopropyl]pyridine-2-sulfonamide] yielded an EC50 (read-out: α7 nAChR Potency) of 100 to 500 nM.
CC1(C)C(c2ccc(S(N)(=O)=O)nc2)C1c1nc2ccccc2o1 (single isomer, unassigned) [Example 1, 5-[trans-3-(1,3-Benzoxazol-2-yl)-2,2-dimethylcyclopropyl]pyridine-2-sulfonamide] was tested, and the EC50 (read-out: α7 nAChR EC50) was 450 nM and the EC50 (read-out: α7 nAChR Potency) was 100 to 500 nM.
For NS(=O)(=O)c1ccc([C@@H]2C[C@H]2c2nc(-c3ccccc3)no2)nc1 (racemic) [Example G6, 6-[trans-2-(3-Phenyl-1,2,4-oxadiazol-5-yl)cyclopropyl]pyridine-3-sulfonamide], the EC50 (read-out: α7 nAChR EC50) was 1300 nM and the EC50 (read-out: α7 nAChR Potency) was 500 to 5000 nM.
In the case of NS(=O)(=O)c1cnc([C@@H]2C[C@H]2c2nc(-c3ccccc3)no2)s1 (racemic) [Example D8, 2-[trans-2-(3-Phenyl-1,2,4-oxadiazol-5-yl)cyclopropyl]-1,3-thiazole-5-sulfonamide], the EC50 (read-out: α7 nAChR EC50) is reported as 1000 nM and the EC50 (read-out: α7 nAChR Potency) is reported as 500 to 5000 nM.
Work on CC1(C)[C@@H](c2ccc(S(N)(=O)=O)cn2)[C@@H]1c1nc(-c2cncc(C(F)(F)F)c2)no1 [Example F2, 6-[(1S,3S)-2,2-Dimethyl-3-{3-[5-(trifluoromethyl)pyridin-3-yl]-1,2,4-oxadiazol-5-yl}cyclopropyl]pyridine-3-sulfonamide] yielded an EC50 (read-out: α7 nAChR EC50) of 3300 nM and an EC50 (read-out: α7 nAChR Potency) of 500 to 5000 nM.
Compound CC1(C)[C@@H](c2nc(C3CCC3)no2)[C@@H]1c1ncc(S(N)(=O)=O)s1 (racemic) [Example D2, 2-[trans-3-(3-Cyclobutyl-1,2,4-oxadiazol-5-yl)-2,2-dimethylcyclopropyl]-1,3-thiazole-5-sulfonamide] has an EC50 (read-out: α7 nAChR EC50) of 1200 nM and an EC50 (read-out: α7 nAChR Potency) of 500 to 5000 nM.
For CC1(C)[C@@H](c2ccc(S(N)(=O)=O)nc2)[C@@H]1c1nc(C2CCCC2)no1 [Example B7, 5-[(1S,3S)-3-(3-Cyclopentyl-1,2,4-oxadiazol-5-yl)-2,2-dimethylcyclopropyl]pyridine-2-sulfonamide], the EC50 (read-out: α7 nAChR EC50) was 370 nM and the EC50 (read-out: α7 nAChR Potency) was 100 to 500 nM.
CC1(C)[C@H](c2ccc(S(N)(=O)=O)nc2)[C@H]1c1nc(-c2ccc(F)cc2F)no1 [Example A8, 5-{(1R,3R)-3-[3-(2,4-Difluorophenyl)-1,2,4-oxadiazol-5-yl]-2,2-dimethylcyclopropyl}pyridine-2-sulfonamide] was tested, and the EC50 (read-out: α7 nAChR Potency) was 500 to 5000 nM.
Compound CC1(C)[C@@H](c2ccc(S(N)(=O)=O)cn2)[C@@H]1c1nc(-c2ccccc2)no1 [Example F10, 6-[(1S,3S)-2,2-Dimethyl-3-(3-phenyl-1,2,4-oxadiazol-5-yl)cyclopropyl]pyridine-3-sulfonamide] has an EC50 (read-out: α7 nAChR EC50) of 1100 nM and an EC50 (read-out: α7 nAChR Potency) of 500 to 5000 nM.
For CC1(C)[C@@H](c2ccc(S(N)(=O)=O)nc2)[C@@H]1c1nc(-c2ccc(F)cc2F)no1 [Example B3, 5-{(1S,3S)-3-[3-(2,4-Difluorophenyl)-1,2,4-oxadiazol-5-yl]-2,2-dimethylcyclopropyl}pyridine-2-sulfonamide], the EC50 (read-out: α7 nAChR Potency) was 500 to 5000 nM.
CC1(C)[C@@H](c2nc(-c3ccccc3)no2)[C@@H]1c1ncc(S(N)(=O)=O)s1 (racemic) [Example D4, 2-[trans-2,2-Dimethyl-3-(3-phenyl-1,2,4-oxadiazol-5-yl)cyclopropyl]-1,3-thiazole-5-sulfonamide] was tested, and the EC50 (read-out: α7 nAChR EC50) was 360 nM and the EC50 (read-out: α7 nAChR Potency) was 100 to 500 nM.
Compound CC1(C)[C@@H](c2ccc(S(N)(=O)=O)nc2)[C@@H]1c1nc(-c2ccccc2)no1 (racemic) [Example C6, 5-[trans-2,2-Dimethyl-3-(3-phenyl-1,2,4-oxadiazol-5-yl)cyclopropyl]pyridine-2-sulfonamide] has an EC50 (read-out: α7 nAChR Potency) of 500 to 5000 nM.
In the case of CC1(C)[C@H](c2ccc(S(N)(=O)=O)nc2)[C@H]1c1nc(-c2cccc(C(F)(F)F)c2)no1 [Example A10, 5-[(1R,3R)-2,2-Dimethyl-3-{3-[3-(trifluoromethyl)phenyl]-1,2,4-oxadiazol-5-yl}cyclopropyl]pyridine-2-sulfonamide], the EC50 (read-out: α7 nAChR Potency) is reported as 500 to 5000 nM.
CC1(C)[C@@H](c2nc3ccccc3o2)[C@@H]1c1ncc(S(N)(=O)=O)s1 (racemic) [Example D1, 2-[trans-3-(1,3-Benzoxazol-2-yl)-2,2-dimethylcyclopropyl]-1,3-thiazole-5-sulfonamide] gave an EC50 (read-out: α7 nAChR EC50) of 2000 nM and an EC50 (read-out: α7 nAChR Potency) of 500 to 5000 nM.
With COc1ccc(Cl)cc1-c1noc([C@H]2[C@H](c3ccc(S(N)(=O)=O)cn3)C2(C)C)n1 [Example F4, 6-{(1S,3S)-3-[3-(5-Chloro-2-methoxyphenyl)-1,2,4-oxadiazol-5-yl]-2,2-dimethylcyclopropyl}pyridine-3-sulfonamide] the EC50 (read-out: α7 nAChR Potency) was 500 to 5000 nM.
For CC1(C)[C@@H](c2ccc(S(N)(=O)=O)cn2)[C@@H]1c1nc(C2CC(F)(F)C2)no1 [Example F12, 6-{(1S,3S)-3-[3-(3,3-Difluorocyclobutyl)-1,2,4-oxadiazol-5-yl]-2,2-dimethylcyclopropyl}pyridine-3-sulfonamide], the EC50 (read-out: α7 nAChR EC50) was 1900 nM and the EC50 (read-out: α7 nAChR Potency) was 500 to 5000 nM.
Compound CC1(C)[C@H](c2ccc(S(N)(=O)=O)nc2)[C@H]1c1ncc(C2CCCC2)o1 [Example A4, 5-[(1R,3R)-3-(5-Cyclopentyl-1,3-oxazol-2-yl)-2,2-dimethylcyclopropyl]pyridine-2-sulfonamide] has an EC50 (read-out: α7 nAChR EC50) of 3200 nM and an EC50 (read-out: α7 nAChR Potency) of 500 to 5000 nM.
Compound COc1ccc(Cl)cc1-c1noc([C@@H]2[C@@H](c3ccc(S(N)(=O)=O)cn3)C2(C)C)n1 [Example E4, 6-{(1R,3R)-3-[3-(5-Chloro-2-methoxyphenyl)-1,2,4-oxadiazol-5-yl]-2,2-dimethylcyclopropyl}pyridine-3-sulfonamide] has an EC50 (read-out: α7 nAChR EC50) of 5400 nM and an EC50 (read-out: α7 nAChR Potency) of 5000 to 50000 nM.
For CC1(C)[C@H](c2ccc(S(N)(=O)=O)cn2)[C@H]1c1nc(C2CCCC2)no1 [Example E2, 6-[(1R,3R)-3-(3-Cyclopentyl-1,2,4-oxadiazol-5-yl)-2,2-dimethylcyclopropyl]pyridine-3-sulfonamide], the EC50 (read-out: α7 nAChR EC50) was 3200 nM and the EC50 (read-out: α7 nAChR Potency) was 500 to 5000 nM.
In the case of CC1(C)[C@@H](c2ccc(S(N)(=O)=O)nc2)[C@@H]1c1noc(-c2c(F)ccc(F)c2F)n1 (racemic) [Example C1, 5-{trans-2,2-Dimethyl-3-[5-(2,3,6-trifluorophenyl)-1,2,4-oxadiazol-3-yl]cyclopropyl}pyridine-2-sulfonamide], the EC50 (read-out: α7 nAChR EC50) is reported as 580 nM and the EC50 (read-out: α7 nAChR Potency) is reported as 500 to 5000 nM.
Work on CC1(C)[C@@H](c2ccc(S(N)(=O)=O)cn2)[C@@H]1c1nc(-c2cccc(C(F)(F)F)c2)no1 [Example F6, 6-[(1S,3S)-2,2-Dimethyl-3-{3-[3-(trifluoromethyl)phenyl]-1,2,4-oxadiazol-5-yl}cyclopropyl]pyridine-3-sulfonamide] yielded an EC50 (read-out: α7 nAChR EC50) of 2700 nM and an EC50 (read-out: α7 nAChR Potency) of 500 to 5000 nM.
With Cc1nc(S(N)(=O)=O)ccc1[C@@H]1C[C@H]1c1nc(-c2ccccc2)no1 (relative stereo) [Example 5, 6-Methyl-5-[trans-2-(3-phenyl-1,2,4-oxadiazol-5-yl)cyclopropyl]pyridine-2-sulfonamide] the EC50 (read-out: α7 nAChR EC50) was 3400 nM and the EC50 (read-out: α7 nAChR Potency) was 500 to 5000 nM.
For CC1(C)[C@H](c2nc(-c3ccccc3)no2)[C@H]1c1ncc(S(N)(=O)=O)s1 [Example D9, 2-[(1R,3R)-2,2-Dimethyl-3-(3-phenyl-1,2,4-oxadiazol-5-yl)cyclopropyl]-1,3-thiazole-5-sulfonamide], the EC50 (read-out: α7 nAChR EC50) was 1700 nM and the EC50 (read-out: α7 nAChR Potency) was 500 to 5000 nM.

— patent US11198687B2, “Heteroaryl allosteric modulators of nicotinic acetylcholine receptors” (Merck Sharp & Dohme Corp., priority 2017, dated 2021)
